According to patent US11365410B2, “Production and monitoring of metabolites in cells” (President and Fellows of Harvard College, priority 2015, dated 2022):

How the values were obtained:
acuR = assay: acuR-based 3HP biosensor induction (indirect, via acrylate); format: cell-based, Rhodobacter sphaeroides; conditions: 10 mM 3HP; with pcs^Δ3 and ach
Description: Metab Eng, 16, 130-139 hereby incorporated by reference in its entirety). All three reactions are useful for a prpR-based biosensor, but for the acuR-based biosensor, accumulation of acrylyl-CoA rather than propionyl-CoA is necessary. […] Accordingly, the domain responsible for conversion of acrylyl-CoA to propionyl-CoA was removed while preserving the activity of the other two domains. […] A 90-fold increase in fluorescence was obtained when the acuR-based biosensor was induced with 10 mM 3HP. […] Fluorescence remained at background levels for greater than 16 hours in the absence of pcs^Δ3 and ach (see FIG. 17).
Plasmids were constructed using Gibson isothermal assembly methods (see Gibson, D. G., Young, L., Chuang, R. Y., Venter, J. C., Hutchison, C. A., 3rd and Smith, H. O. (2009) Enzymatic assembly of DNA molecules up to several hundred kilobases. Nat Methods, 6, 343-345 hereby incorporated by reference in its entirety) and cloned into DH5α electrocompetent cells purchased from New England Biolabs. Biosynthesis of product molecules was carried out in either BL21 (DE3) or DH5α. The prpR-based 3HP biosensor was implemented as a two-plasmid system. The first plasmid is pPro24-GFP (Addgene plasmid #18880), which expresses GFPuv under the control of the methyl-citrate responsive transcription factor, prpR, on a pBR322 origin of replication providing β-lactam resistance. […]

prpR (E. coli) = assay: prpR-based 3HP biosensor induction (indirect, via 2-methylcitrate); format: cell-based; conditions: 12 mM 3-HP; with pcs and prpC
Text: According to a first aspect, 3-HP is transformed into 2-methylcitrate in the presence of a 2-methylcitrate sensor. The resulting system is a 3-HP biosensor. The transcriptional regulator prpR from E. coli is used to control gene expression in proportion to the concentration of 2-methylcitrate inside the cell. This inducible system has been described previously with the aim of sensing propionate—a distinct chemical from 3HP (WO 2007005837 A3, http://www.ncbi.nlm.nih.gov/pubmed/16269719). The endogenous enzyme, 2-methylcitrate synthase (prpC), and the heterologous multifunctional enzyme propionyl-CoA synthase (pcs) from the carbon fixation pathway of Chloroflexus aurantiacus (see Mattozzi, M., Ziesack, M., Voges, M. J., Silver, P. A. and Way, J. C. (2013) Expression of the sub-pathways of the Chloroflexus aurantiacus 3-hydroxypropionate carbon fixation bicycle in E. coli: Toward horizontal transfer of autotrophic growth. Metab Eng, 16, 130-139 hereby incorporated by reference in its entirety) are used to produce 2-methylcitrate from 3-HP. Together the system of three genes (pcs, prpC, prpR) comprises the prpR-based 3HP biosensor (see FIG. 15A). […] As a result of this linkage, 3-HP concentration controls expression of green fluorescent protein (GFP). […] The proportion of 2-methylcitrate produced in this way is proportional to the amount of 3-HP inside the cell. […]

[1] = system: prpR-based 3HP biosensor (pcs, prpC, prpR); assay: prpR-based 3HP biosensor characterization; format: cell-based, E. coli
Text: According to a first aspect, 3-HP is transformed into 2-methylcitrate in the presence of a 2-methylcitrate sensor. The resulting system is a 3-HP biosensor. The transcriptional regulator prpR from E. coli is used to control gene expression in proportion to the concentration of 2-methylcitrate inside the cell. This inducible system has been described previously with the aim of sensing propionate—a distinct chemical from 3HP (WO 2007005837 A3, http://www.ncbi.nlm.nih.gov/pubmed/16269719). The endogenous enzyme, 2-methylcitrate synthase (prpC), and the heterologous multifunctional enzyme propionyl-CoA synthase (pcs) from the carbon fixation pathway of Chloroflexus aurantiacus (see Mattozzi, M., Ziesack, M., Voges, M. J., Silver, P. A. and Way, J. C. (2013) Expression of the sub-pathways of the Chloroflexus aurantiacus 3-hydroxypropionate carbon fixation bicycle in E. coli: Toward horizontal transfer of autotrophic growth. Metab Eng, 16, 130-139 hereby incorporated by reference in its entirety) are used to produce 2-methylcitrate from 3-HP. Together the system of three genes (pcs, prpC, prpR) comprises the prpR-based 3HP biosensor (see FIG. 15A). […] As a result of this linkage, 3-HP concentration controls expression of green fluorescent protein (GFP). […] The proportion of 2-methylcitrate produced in this way is proportional to the amount of 3-HP inside the cell. The expression of the controlled gene is thus a measurement of intracellular 3-HP concentration.
DH5α cells doubly transformed with plasmids pPro24-GFP and pJKR-PCS, or plasmids pJKR-H-acuR and pJKR-PCSfrag-ACH, were exposed to increasing concentrations of 3-HP and monitored for GFP expression. Cells were grown overnight to saturation before being diluted 1:100 into fresh LB media and incubated at 200 RPM and 37° C. After four hours, 150 μl of the log-phase cells were transferred to 96-well plates and 3HP was added to the appropriate final concentration. Each inoculation and induction was performed in triplicate. Strains lacking the biosensor helper plasmids were included to reveal that the biosensor activation was indeed dependent on the presence of the helper plasmids. In the case of the end-point measurements, fluorescence was measured 16 hours after 3-HP addition with a Biotek HT plate reader (excitation 485/20, emission 528/20). Time course data was collected over a 16 hour period on the same plate reader at 37° C. with fast shaking and 10 minute measurement intervals. Fluorescence was normalized by optical density. Fold induction was determined by dividing the fluorescence obtained at the current induction level by the fluorescence obtained without induction. Error bars represent the 95% confidence interval derived from the standard error of the mean.

For `O=C(O)CCO` [3-HP, 3-hydroxypropionate], the Increase in fluorescence (acuR) was 90 fold, the “Fluorescent response relative to uninduced” value (prpR (E. coli)) was 2.4 fold and the “time to half-maximal fluorescent response” value ([1]; 3-HP induction) was 5 h. For the same molecule, the “time to reach 90% induction” value ([1]; 3-HP induction) was “approximately 8 hours”, the “fluorescent response, fold greater than uninduced fluorescence” value ([1]; induced with 12 mM 3-HP) was 2.4 fold and the “response of prpR sensor alone” value ([1]; without helper enzyme pcs) was “cannot detect”.
